Laboratory results reported in the supplement of paper PMC11208160.

Test: recombinant UMI read abundance after kanamycin selection (control-corrected) (log10(CPM+1)); higher = more efficient recombination; extreme values may be limits of the assay; sequences stand for … in AGTGCAGAGAAAATCGGCCAGTTTTCTCTGCCTGCAGTCCGCATGCCGTGGGACCCCTTGGGTTCTAACCTGTTGCCTAGATTTATGCAGCGGACTGCCTTTCTCCCAAAGTGATAAACCGG…AGGTTGGTTTCACT; site = the 11-nt donor
Outline: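 In Escherichia coli, a pool of donor and donor-binding-loop pairs, each with a 12-nt UMI, was tested for the IS621 bridge recombinase. Plating was on IPTG (0.07 mM) plus kanamycin, or without selection, in two replicates. Recombinant UMIs were amplified by PCR across the donor–target junction and sequenced, and counts were reported as log10(CPM+1) after averaging and control-derived scaling.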
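Note: IS621 bridge recombinase in Escherichia coli cells against a fixed T5 target plasmid.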

| Sequence | recombinant UMI read abundance (log10) |
| --- | --- |
| CGGATACCATGGACCGGTTTTCCCGGTAATCCGTATTTGTT (site CGGATACCTAA) | 0 |
| CGGATTGCATGGACCGGTTTTCCCGGTAATCCGTATTTGCT (site CGGATTGCTAG) | 1.79 |
| CGGCAGACATGGACCGGTTTTCCCGGTAATCCGTATTTGGT (site CGGCAGACTAC) | 1.9 |
| CGGCCCTCATGGACCGGTTTTCCCGGTAATCCGTATTTGCA (site CGGCCCTCTTG) | 3.02 |
| CGGCGGACATGGACCGGTTTTCCCGGTAATCCGTATTTGTG (site CGGCGGACTCA) | 1.64 |
| CGGCGTTCATGGACCGGTTTTCCCGGTAATCCGTATTTGAC (site CGGCGTTCTGT) | 1.69 |
| CGGCTGCCATGGACCGGTTTTCCCGGTAATCCGTATTTGTT (site CGGCTGCCTAA) | 0.0892 |
| CGGCTTACATGGACCGGTTTTCCCGGTAATCCGTATTTGTC (site CGGCTTACTGA) | 1.65 |
| CGGGAACCATGGACCGGTTTTCCCGGTAATCCGTATTTGAC (site CGGGAACCTAT) | 0 |
| CGGGAACCATGGACCGGTTTTCCCGGTAATCCGTATTTGAC (site CGGGAACCTCT) | 0 |
| CGGGAACCATGGACCGGTTTTCCCGGTAATCCGTATTTGAC (site CGGGAACCTGT) | 0 |
| CGGGAACCATGGACCGGTTTTCCCGGTAATCCGTATTTGAC (site CGGGAACCTTT) | 0.0135 |
| CGGGAATCATGGACCGGTTTTCCCGGTAATCCGTATTTGAT (site CGGGAAACTAT) | 1.23 |
| CGGGAATCATGGACCGGTTTTCCCGGTAATCCGTATTTGAT (site CGGGAACCTAT) | 0 |
| CGGGAATCATGGACCGGTTTTCCCGGTAATCCGTATTTGAT (site CGGGAAGCTAT) | 0.284 |
| CGGGAATCATGGACCGGTTTTCCCGGTAATCCGTATTTGAT (site CGGGAATCTAT) | 2.01 |
| CGGGACACATGGACCGGTTTTCCCGGTAATCCGTATTTGTC (site CGGGACACTGA) | 3.03 |
| CGGGAGCCATGGACCGGTTTTCCCGGTAATCCGTATTTGCC (site CGGGAGACTGG) | 0.0249 |
| CGGGAGCCATGGACCGGTTTTCCCGGTAATCCGTATTTGCC (site CGGGAGCCTGG) | 0 |
| CGGGAGCCATGGACCGGTTTTCCCGGTAATCCGTATTTGCC (site CGGGAGGCTGG) | 0.991 |
| CGGGAGCCATGGACCGGTTTTCCCGGTAATCCGTATTTGCC (site CGGGAGTCTGG) | 1 |
| CGGGAGTCATGGACCGGTTTTCCCGGTAATCCGTATTTGCC (site AGGGAGTCTGG) | 0 |
| CGGGAGTCATGGACCGGTTTTCCCGGTAATCCGTATTTGCC (site CAGGAGTCTGG) | 2.51 |
| CGGGAGTCATGGACCGGTTTTCCCGGTAATCCGTATTTGCC (site CCGGAGTCTGG) | 0 |
| CGGGAGTCATGGACCGGTTTTCCCGGTAATCCGTATTTGCC (site CGAGAGTCTGG) | 2.48 |

| Sequence | recombinant UMI read abundance (log10) |
| --- | --- |
| CGGGAGTCATGGACCGGTTTTCCCGGTAATCCGTATTTGCC (site CGCGAGTCTGG) | 1.69 |
| CGGGAGTCATGGACCGGTTTTCCCGGTAATCCGTATTTGCC (site CGGAAGTCTGG) | 2.67 |
| CGGGAGTCATGGACCGGTTTTCCCGGTAATCCGTATTTGCC (site CGGCAGTCTGG) | 0 |
| CGGGAGTCATGGACCGGTTTTCCCGGTAATCCGTATTTGCC (site CGGGAATCTGG) | 2.83 |
| CGGGAGTCATGGACCGGTTTTCCCGGTAATCCGTATTTGCC (site CGGGACTCTGG) | 0 |
| CGGGAGTCATGGACCGGTTTTCCCGGTAATCCGTATTTGCC (site CGGGAGACTGG) | 1.54 |
| CGGGAGTCATGGACCGGTTTTCCCGGTAATCCGTATTTGCC (site CGGGAGCCTGG) | 0 |
| CGGGAGTCATGGACCGGTTTTCCCGGTAATCCGTATTTGCC (site CGGGAGGCTGG) | 0.103 |
| CGGGAGTCATGGACCGGTTTTCCCGGTAATCCGTATTTGCC (site CGGGAGTCTAG) | 2.02 |
| CGGGAGTCATGGACCGGTTTTCCCGGTAATCCGTATTTGCC (site CGGGAGTCTCG) | 1.51 |
| CGGGAGTCATGGACCGGTTTTCCCGGTAATCCGTATTTGCC (site CGGGAGTCTGA) | 2.66 |
| CGGGAGTCATGGACCGGTTTTCCCGGTAATCCGTATTTGCC (site CGGGAGTCTGC) | 2.08 |
| CGGGAGTCATGGACCGGTTTTCCCGGTAATCCGTATTTGCC (site CGGGAGTCTGG) | 1.67 |
| CGGGAGTCATGGACCGGTTTTCCCGGTAATCCGTATTTGCC (site CGGGAGTCTGT) | 1.75 |
| CGGGAGTCATGGACCGGTTTTCCCGGTAATCCGTATTTGCC (site CGGGAGTCTTG) | 2.01 |
| CGGGAGTCATGGACCGGTTTTCCCGGTAATCCGTATTTGCC (site CGGGATTCTGG) | 0 |
| CGGGAGTCATGGACCGGTTTTCCCGGTAATCCGTATTTGCC (site CGGGCGTCTGG) | 0 |
| CGGGAGTCATGGACCGGTTTTCCCGGTAATCCGTATTTGCC (site CGGGGGTCTGG) | 1.3 |
| CGGGAGTCATGGACCGGTTTTCCCGGTAATCCGTATTTGCC (site CGGGTGTCTGG) | 0 |
| CGGGAGTCATGGACCGGTTTTCCCGGTAATCCGTATTTGCC (site CGGTAGTCTGG) | 0.878 |
| CGGGAGTCATGGACCGGTTTTCCCGGTAATCCGTATTTGCC (site CGTGAGTCTGG) | 0.895 |
| CGGGAGTCATGGACCGGTTTTCCCGGTAATCCGTATTTGCC (site CTGGAGTCTGG) | 2.06 |
| CGGGAGTCATGGACCGGTTTTCCCGGTAATCCGTATTTGCC (site GGGGAGTCTGG) | 0 |
| CGGGAGTCATGGACCGGTTTTCCCGGTAATCCGTATTTGCC (site TGGGAGTCTGG) | 0 |
| CGGGATCCATGGACCGGTTTTCCCGGTAATCCGTATTTGAT (site CGGGAACCTAT) | 0.0108 |

| Sequence | recombinant UMI read abundance (log10) |
| --- | --- |
| CGGGATCCATGGACCGGTTTTCCCGGTAATCCGTATTTGAT (site CGGGACCCTAT) | 0.492 |
| CGGGATCCATGGACCGGTTTTCCCGGTAATCCGTATTTGAT (site CGGGAGCCTAT) | 0.0289 |
| CGGGATCCATGGACCGGTTTTCCCGGTAATCCGTATTTGAT (site CGGGATCCTAT) | 0.898 |
| CGGGATCCATGGACCGGTTTTCCCGGTAATCCGTATTTGTT (site CGGAATCCTAA) | 0.736 |
| CGGGATCCATGGACCGGTTTTCCCGGTAATCCGTATTTGTT (site CGGCATCCTAA) | 0.02 |
| CGGGATCCATGGACCGGTTTTCCCGGTAATCCGTATTTGTT (site CGGGATCCTAA) | 0.85 |
| CGGGATCCATGGACCGGTTTTCCCGGTAATCCGTATTTGTT (site CGGTATCCTAA) | 0.243 |
| CGGGCACCATGGACCGGTTTTCCCGGTAATCCGTATTTGAT (site CGGGAACCTAT) | 0 |
| CGGGCACCATGGACCGGTTTTCCCGGTAATCCGTATTTGAT (site CGGGCACCTAT) | 0 |
| CGGGCACCATGGACCGGTTTTCCCGGTAATCCGTATTTGAT (site CGGGGACCTAT) | 0.0117 |
| CGGGCACCATGGACCGGTTTTCCCGGTAATCCGTATTTGAT (site CGGGTACCTAT) | 0 |
| CGGGCATCATGGACCGGTTTTCCCGGTAATCCGTATTTGCT (site CGATCATCTAG) | 0 |
| CGGGCATCATGGACCGGTTTTCCCGGTAATCCGTATTTGCT (site CGGACATCTAG) | 0.763 |
| CGGGCATCATGGACCGGTTTTCCCGGTAATCCGTATTTGCT (site CGGCCATCTAG) | 0 |
| CGGGCATCATGGACCGGTTTTCCCGGTAATCCGTATTTGCT (site CGGGCATCTAG) | 1.86 |
| CGGGCATCATGGACCGGTTTTCCCGGTAATCCGTATTTGCT (site CGGTCATCTAG) | 0 |
| CGGGCATCATGGACCGGTTTTCCCGGTAATCCGTATTTGTA (site CGGGCATCTTA) | 2.38 |
| CGGGCTGCATGGACCGGTTTTCCCGGTAATCCGTATTTGAG (site CGGGCTGCTCT) | 1.37 |
| CGGGGATCATGGACCGGTTTTCCCGGTAATCCGTATTTGTT (site CGGGGATCTAA) | 2.63 |
| CGGGTCCCATGGACCGGTTTTCCCGGTAATCCGTATTTGCC (site CGGGTCCCTGG) | 1.39 |
| CGGTACCCATGGACCGGTTTTCCCGGTAATCCGTATTTGGT (site CGGTACCCTAC) | 0.0101 |
| CGGTAGACATGGACCGGTTTTCCCGGTAATCCGTATTTGAG (site CGATAGACTCT) | 2.01 |
| CGGTAGACATGGACCGGTTTTCCCGGTAATCCGTATTTGAG (site CGCTAGACTCT) | 0.37 |
| CGGTAGACATGGACCGGTTTTCCCGGTAATCCGTATTTGAG (site CGGTAGACTCT) | 1.9 |
| CGGTAGACATGGACCGGTTTTCCCGGTAATCCGTATTTGAG (site CGTTAGACTCT) | 0.371 |
